Assay results from patent US20090131462A1, “Fungicidally Active Agent” (BASF AKTIENGESELLSCHAFT, priority 2005, published 2009).

System: Pyrenophora teres
Assay: Activity against net blotch of barley caused by Pyrenophora teres, 2-day protective application
Format: in vivo
Settings: individual active compound, barley seedlings cultivar Hanna, inoculated 48 hours after spraying, evaluated after 6 days
Method: The active compounds were used either as a commercial formulation or employed as a stock solution. The stock solution was prepared from 25 mg of active compound which had been made up to 10 ml using a mixture of acetone and/or DMSO as solvent and the emulsifier Uniperol® EL (wetting agent having emulsifying and dispersing action based on ethoxylated alkylphenols) in a volume ratio of solvent to emulsifier of 99:1. The volume was then made up to 100 ml using water.
Evaluation was carried out by visually determining the infected leaf areas in %. These percentages were converted into efficacies in % of the untreated control. At an efficacy of 0, the infection of the treated plants corresponds to that of the untreated control plants; at an efficacy of 100, the treated plants are not infected.
The expected efficacies for active compound combinations were determined using Colby's formula (Colby, S. R., “Calculating synergistic and antagonistic responses of herbicide combinations”, Weeds, 15, pp. 20-22, 1967) and compared to the observed efficacies.
Colby's formula: E=x+y−xy/100
E expected efficacy, expressed in % of the untreated control, when using the mixture of the active compounds A and B at the concentrations a and b x efficacy, expressed in % of the untreated control, when using the active compound A at the concentration a y efficacy, expressed in % of the untreated control, when using the active compound B at the concentration b Activity against net blotch of barley caused by Pyrenophora teres, 2-day protective application Leaves of potted barley seedlings of the cultivar “Hanna” were sprayed to runoff point with an aqueous suspension having the concentration of active compound stated below. 48 hours after the spray coating had dried on, the test plants were inoculated with an aqueous spore suspension of Pyrenophora teres (synonym Drechslera teres), the net blotch pathogen. […] After 6 days, the extent of the development of the disease was determined visually in % infection of the total leaf area.

Compound	Efficacy (4 ppm in the spray liquor, % of the untreated control) [%]	Efficacy (concentration in the spray liquor printed as 0 ppm) [%]	Efficacy (250 ppm in the spray liquor) [%]
CC(C)CC(C)c1sccc1NC(=O)c1cn(C)nc1C(F)(F)F (stereo not drawn) [compound A, N-[2-(1,3-dimethylbutyl)-3-thienyl]-1-methyl-3-(trifluoromethyl)-1H-pyrazole-4-carboxamide]	22	0.5	
metiram			0
